Experimental data taken from publication PMC4713029 (Nuclear medicine and biology, 2011).

Tests used:
[1] = test system: pheochromocytoma animal model with extensive liver and other organ lesions; type: in vivo; details: preliminary experiments
[2] = test system: s.c. pheochromocytoma tumors (MPC cells); assay: [^18F]-DA and [^18F]-DOPA PET in mice with subcutaneous pheochromocytoma; details: for SUVmax (mean±S.E.M.), s.c. tumors <5 mm / SUVmax (mean±S.E.M.), s.c. tumors >5 mm / SUVmax in tumor sample s.c. 1 / SUVmax in tumor sample s.c. 2 / SUVmax in tumor sample s.c. 3 / TLR for s.c. tumors (range over tumor size) / TLR, s.c. tumors <5 mm / TLR, s.c. tumors >5 mm / TBR, s.c. tumors <5 mm / TBR, s.c. tumors >5 mm: 60–70 min after administration; for TBR, s.c. tumors <5 mm / TBR, s.c. tumors >5 mm: muscle as background; for number of subcutaneous tumors localized by PET: necropsy 4 in 4 mice
[3] = test system: organ metastatic pheochromocytoma lesions (MPC cells); assay: [^18F]-DA and [^18F]-DOPA PET in mice with organ metastatic pheochromocytoma; details: for TBR (tumor-to-background ratio), liver tumors <3 mm / TBR, adrenal tumors >3 mm / TBR, liver tumors >3 mm / TBR, ovary tumors >3 mm: muscle as background; for SUVmax in tumor sample Adrenal 1: sample also immunostained; for SUVmax in liver lesions, the first week / SUVmax in liver lesions, the second week: liver lesions imaged once a week for two weeks; for optimal time for lesion detection after administration: liver lesions vs liver background, dynamic PET up to 70 min; for number of ovary tumors localized by PET: necropsy 4 in 4 mice; for number of lung tumors localized by PET: necropsy >20 in 2 mice
[4] = cited from earlier work
[5] = Fig. 3G, 60–70 min after injection

## COC(=O)[C@H]1[C@H]2C[C@@H]3c4[nH]c5cc(OC)ccc5c4CCN3C[C@H]2C[C@@H](OC(=O)c2cc(OC)c(OC)c(OC)c2)[C@@H]1OC [reserpine]
[1]
  side effects on administration in tumor-bearing animals: side effects were in most cases fatal

## COc1cc2c(cc1OC)C1CC(=O)C(CC(C)C)CN1CC2 (stereo not shown) [tetrabenazine]
[1]
  side effects on administration in tumor-bearing animals: side effects were in most cases fatal

## NCCc1cc(O)c(O)cc1[18F] [[^18F]-DA, [^18F]-6-fluorodopamine]
[2]
  SUVmax (mean±S.E.M.), s.c. tumors <5 mm: 0.31±0.02
  SUVmax (mean±S.E.M.), s.c. tumors >5 mm: 0.35±0.12
  SUVmax in tumor sample s.c. 1: — (A dash sign “—” presents SUVmax values less than 0.3 for both [^18F]-DA and [^18F]-DOPA)
  SUVmax in tumor sample s.c. 2: — (A dash sign “—” presents SUVmax values less than 0.3 for both [^18F]-DA and [^18F]-DOPA)
  SUVmax in tumor sample s.c. 3: — (A dash sign “—” presents SUVmax values less than 0.3 for both [^18F]-DA and [^18F]-DOPA)
  TLR for s.c. tumors (range over tumor size): 0.22-0.27
  TLR, s.c. tumors <5 mm: 0.22
  TLR, s.c. tumors >5 mm: 0.27
  TBR, s.c. tumors <5 mm: 1.72
  TBR, s.c. tumors >5 mm: 1.94
[2]; [5]
  SUVmax in large s.c. tumor, representative animal: 0.35
  SUVmax in muscle (nontarget tissue), representative animal: 0.31
[2]; four mice
  number of subcutaneous tumors localized by PET: 0
[3]; 60–70 min after administration
  SUVmax (mean±S.E.M.), adrenal tumors >3 mm: 2.18±0.39
  SUVmax (mean±S.E.M.), kidney: 2.41±0.45
  SUVmax (mean±S.E.M.), liver: 0.88±0.11
  SUVmax (mean±S.E.M.), liver tumors <3 mm: 1.61±0.17
  SUVmax (mean±S.E.M.), liver tumors >3 mm: 2.49±0.08
  SUVmax (mean±S.E.M.), muscle (background): 0.31±0.02
  SUVmax (mean±S.E.M.), ovary tumors >3 mm: 1.99±0.27
  SUVmax in tumor sample Adrenal 2: 1.98
  SUVmax in tumor sample Bone: — (A dash sign “—” presents SUVmax values less than 0.3 for both [^18F]-DA and [^18F]-DOPA)
  SUVmax in tumor sample Liver 1: 2.46
  SUVmax in tumor sample Liver 2: 1.89
  SUVmax in tumor sample Liver 3: — (A dash sign “—” presents SUVmax values less than 0.3 for both [^18F]-DA and [^18F]-DOPA)
  SUVmax in tumor sample Lung: — (A dash sign “—” presents SUVmax values less than 0.3 for both [^18F]-DA and [^18F]-DOPA)
  SUVmax in tumor sample Ovary: 1.92
  TLR (tumor-to-liver ratio), liver tumors <3 mm: 1.83
  TLR for liver lesions (range depending on tumor size): 1.83–2.83
  TLR, adrenal tumors >3 mm: 2.47
  TLR, liver tumors >3 mm: 2.83
  TLR, ovary tumors >3 mm: 2.26
  TBR (tumor-to-background ratio), liver tumors <3 mm: 5.19
  TBR, adrenal tumors >3 mm: 7.03
  TBR, liver tumors >3 mm: 8.03
  TBR, ovary tumors >3 mm: 6.41
  SUVmax in tumor sample Adrenal 1: 2.15
[3]; dynamic PET 10–70 min, Fig. 1
  SUVmax time–activity course, liver lesions smaller than 3 mm: remained relatively stable
  SUVmax time–activity course, liver tumors larger than 3 mm: decrease in SUVmax over time
[3]
  SUVmax in liver lesions, the first week: 1.85±0.199
  SUVmax in liver lesions, the second week: 1.16±0.07
  optimal time for lesion detection after administration: 60 to 70 min
[3]; week 5, nine mice
  number of mice with adrenal tumors localized by PET: 4 mice
  number of mice with liver tumors localized by PET: 8 mice
  number of mice with ovary tumors localized by PET: 4 in 4 mice
  number of ovary tumors localized by PET: 4 in 4 mice
  number of lung tumors localized by PET: 0

## NCCc1ccc(O)c(O)c1 [dopamine]
[4]
  half-life in circulation: about 1 minute

## N[C@@H](Cc1cc(O)c(O)cc1[18F])C(=O)O [[^18F]-DOPA, [^18F]-L-6-fluoro-3,4-dihydroxyphenylalanine]
[2]
  SUVmax (mean±S.E.M.), s.c. tumors <5 mm: 2.88±0.88
  SUVmax (mean±S.E.M.), s.c. tumors >5 mm: 2.0±0.06
  SUVmax in tumor sample s.c. 1: 1.88
  SUVmax in tumor sample s.c. 2: 2.25
  SUVmax in tumor sample s.c. 3: 2.09
  TLR for s.c. tumors (range over tumor size): 1.56-2.24
  TLR, s.c. tumors <5 mm: 2.24
  TLR, s.c. tumors >5 mm: 1.56
  TBR, s.c. tumors <5 mm: 7.2
  TBR, s.c. tumors >5 mm: 5.0
[2]; [5]
  SUVmax in large s.c. tumor, representative animal: 2
[2]; four mice
  number of mice with subcutaneous tumors localized by PET: 4 in 4 mice
  number of subcutaneous tumors localized by PET: 4 in 4 mice
[3]; 60–70 min after administration
  SUVmax (mean±S.E.M.), adrenal tumors >3 mm: 6.61±0.64
  SUVmax (mean±S.E.M.), kidney: 1.73±0.34
  SUVmax (mean±S.E.M.), liver: 1.33±0.14
  SUVmax (mean±S.E.M.), liver tumors <3 mm: 3.01±0.27
  SUVmax (mean±S.E.M.), liver tumors >3 mm: 3.61±0.19
  SUVmax (mean±S.E.M.), muscle (background): 0.29±0.02
  SUVmax (mean±S.E.M.), ovary tumors >3 mm: 2.59±0.32
  SUVmax in tumor sample Adrenal 2: 5.79
  SUVmax in tumor sample Bone: 1.42
  SUVmax in tumor sample Liver 1: 3.31
  SUVmax in tumor sample Liver 2: 2.79
  SUVmax in tumor sample Liver 3: 3.24
  SUVmax in tumor sample Lung: 1.15
  SUVmax in tumor sample Ovary: 3.05
  TLR (tumor-to-liver ratio), liver tumors <3 mm: 2.26
  TLR for liver lesions (range depending on tumor size): 2.26–2.71
  TLR, liver tumors >3 mm: 2.71
  TBR (tumor-to-background ratio), liver tumors <3 mm: 10.38
  TBR, adrenal tumors >3 mm: 22.79
  TBR, liver tumors >3 mm: 12.45
  TBR, ovary tumors >3 mm: 8.93
  SUVmax in tumor sample Adrenal 1: 6.46
[3]; dynamic PET 10–70 min, Fig. 1
  SUVmax time–activity course, liver lesions regardless of tumor size: remained stable over time
[3]
  SUVmax in liver lesions, the first week: 3.023±0.22
  SUVmax in liver lesions, the second week: 2.88±0.12
  optimal time for lesion detection after administration: 60 to 70 min
[3]; week 5, nine mice
  number of mice with adrenal tumors localized by PET: 5 mice
  number of mice with liver tumors localized by PET: 9 mice
  number of mice with lung tumors localized by PET: 1 in 1 mouse
  number of mice with ovary tumors localized by PET: 4 in 4 mice
  number of ovary tumors localized by PET: 4 in 4 mice
  number of lung tumors localized by PET: 1 in 1 mouse
[3]; week 5, nine mice, necropsy 18 in 9 mice
  number of adrenal tumors localized by PET: 9

## CNCCCN1c2ccccc2CCc2ccccc21 [desipramine]
[1]
  side effects on administration in tumor-bearing animals: side effects were in most cases fatal
